Data as given in PMC10536928, “Discovery of New Pyrrolo[2,3-d]pyrimidine Derivatives as Potential Multi-Targeted Kinase Inhibitors and Apoptosis Inducers” (Pharmaceuticals, 2023).

Experiments:
Type in all cases: cell-based
[1] = system: epithelioid cervix carcinoma (HeLa); test: MTT cytotoxicity assay; settings: Homo sapiens, 24 h exposure, mean ± SD of triplicate
[2] = system: four different cancer cell lines (MCF-7, HepG2, MDA-MB-231, HeLa); test: MTT cytotoxicity assay, range over the four cell lines; settings: read-out: IC50 values, range over the tested cancer cell lines
Protocol: The cytotoxic effects of compounds 5a–m were evaluated using a standard MTT method against four different cancer cell lines, namely mammary gland cancer (MCF-7), hepatocellular carcinoma (HepG2), breast cancer (MDA-MB-231), and epithelioid cervix carcinoma (HeLa). […] These findings highlight the potential of these compounds as candidates for further development as cytotoxic agents for cancer treatment.
The cytotoxicity of compounds 5a–m was assessed against various cancer cell lines and one normal cell line using the described methodology. In brief, the cells were cultured in 96-well plates with a density of 1.0 × 10^4 cells per well, supplemented with 10% fetal bovine serum (FBS), an antibiotic cocktail, and RPMI 11,640 medium. The cells were then incubated for 48 h with 5% CO2 and 100% relative humidity at 37 °C. […] Following treatment, the addition of 20 µL of MTT solution was added to each well and incubation was continued for another 4 h, after which dimethyl sulfoxide (100 µL) was used to dissolve the resulting insoluble formazan. The absorbance was measured at 570 nm using a BioTek EXL 800 plate reader (Agilent Technologies, CA, USA). By comparing the absorbance of treated samples to untreated samples, the relative cell viability percentage was calculated as (A570 of treated samples/A570 of untreated sample) × 100. The IC50 values were determined based on triplicate measurements.

[3] = system: HepG2 cells; test: Annexin-V/propidium iodide double staining assay; settings: compound at its IC50, 24 h
Protocol: To investigate the type of cell death induced by compound 5k, flow cytometry analysis was conducted. […] Subsequently, the cells were double stained with Annexin V and propidium iodide (PI). […] Apoptosis is a process of programmed cell death that occurs naturally in the body, while necrosis is a type of cell death that occurs due to damage or injury to the cell. […] In the early stage of the experiment, the percentage of apoptotic cells was 0.51% in the control group and 15.63% in the 5k treated group. In the late stage, the percentage of apoptotic cells was 0.29% in the control group and 9.74% in the 5k treated group.
In contrast, the percentage of necrotic cells was also higher in the 5k treated group compared to the control group. The percentage of necrotic cells was 1.58% in the control group and 4.17% in the 5k treated group. […] Further studies are needed to determine the underlying mechanisms of this effect and to assess the potential therapeutic applications of compound 5k in the treatment of diseases involving abnormal cell death.
To investigate the apoptotic effects of the synthesized compound 5k, HepG2 cells were cultured in triplicate at a density of 2.0 × 10^5 cells per well. Subsequently, the cells were treated with the selected compounds at their respective IC50 values determined by the MTT assay. After 24 h, the cells were detached using trypsin, collected, and then centrifuged. Following two washes with PBS, the cells were resuspended in 0.1 mL of binding buffer. Dual staining was performed by adding Annexin V-FITC (5 µL) and propidium iodide (5 µL) to the cell suspension, which was then incubated in the dark for 15 min at room temperature. Flow cytometry analysis was performed using the Epics XL-MCL™ flow cytometry equipment (Beckman Coulter, Apeldoorn, The Netherlands) with an excitation wavelength of 488 nm and an emission wavelength of 530 nm. Finally, the experimental results were analyzed using flowing “Turku Centre for Biotechnology” software, version 2.5.1 (Turku, Finland).

[4] = system: HepG2 cells; test: Cell cycle analysis (propidium iodide flow cytometry)
From the text: The objective of the study was to evaluate the influence of the synthesized compounds on the progression of the cell cycle in HepG2 cells.
The observed modifications in cell cycle distribution following drug treatment indicate a potential mechanism of action involving cell cycle arrest, a commonly employed therapeutic strategy for suppressing cancer cell proliferation. By impeding cells in the G0–G1 phase, drugs can effectively prevent them from proceeding to the S phase, where DNA replication takes place, and ultimately lead to cell death. […] The cell cycle distribution index (CDI) is a metric that quantifies the rate of cell proliferation and can be derived from the percentage of cells in each phase of the cell cycle. The CDI was calculated using the formula: CDI = (G2/M + S)/[…], wherein G0/G1, S, and G2/M denote the percentages of cells in the respective phases of the cell cycle. The CDI values for the control and compound 5k were determined to be 1.35 and 1.03, respectively.
To investigate the impact of the synthesized compound 5k on cell cycle progression, the ab139418 Propidium Iodide flow cytometry kit/BD was utilized. Initially, HepG2 cells were seeded in triplicate at a density of 2 × 10^5 cells per well in 6-well plates and incubated for 24 h. […] Following treatment, the HepG2 cells were fixed with 70% ethanol and incubated for 12 h at 4 °C. Subsequently, the wells were washed with cold PBS, treated with RNase A (100 µL) at 37 °C for 30 min, and stained with Propidium Iodide (400 µL) in a dark environment at room temperature for another 30 min. The labeled cells were then analyzed using the Epics XLMCL™ flow cytometer equipment (Beckman Coulter, Apeldoorn, the Netherlands). Finally, the experimental results were analyzed using Turku Centre for Biotechnology software version 2.5.1 (Turku, Finland).

O=C(N/N=C/c1ccc(Cl)c(Cl)c1)c1ccc(Nc2ncnc3[nH]ccc23)cc1 [Compound 5k, (E)-4-((7H-Pyrrolo[2,3-d]pyrimidin-4-yl)amino)-N’-(3,4-dichlorobenzylidene)benzohydrazide]
IC50 [1]: 57.8 ± 3.1 µM
IC50 [2]: 29 to 59 µM
Apoptosis Late ([3]; control 0.29): 9.74%
Apoptosis Early ([3]; control 0.51): 15.63%
Necrosis ([3]; control 1.58): 4.17%
Cell Cycle Distribution Index (CDI) ([4]; CDI = (G2/M + S)/G0/G1, control 1.35): 1.03
DNA Content (%) %G2/M ([4]; compound at its IC50, 24 h, control 19.38): 18.3%
DNA Content (%) %S ([4]; compound at its IC50, 24 h, control 36.76): 32.52%
DNA Content (%) %G0–G1 ([4]; compound at its IC50, 24 h, control 43.86): 49.18%
